Activity calls are given as the source filed them. No cut-off for these calls is given here.
Tests used:
Colletotrichum acutatum [1] = test: Fungicidal activity against Colletotrichum acutatum infested Citrus sinensis assessed as increase in fruit set at 1.25 g/l applied through airblast sprayer during open flower stage measured after 70 days; type: functional, organism-based
Colletotrichum acutatum [2] = test: Fungicidal activity against Colletotrichum acutatum infested Citrus sinensis assessed as total fruit weight per plant at 1.25 g/l applied through airblast sprayer during green bud until open flower stages measured after 70 days (Rvb =65.90 kg); type: functional
Colletotrichum acutatum [3] = test: Fungicidal activity against Colletotrichum acutatum infested Citrus sinensis assessed as total fruit weight per plant at 1.25 g/l applied through airblast sprayer during green bud and white bud flower stages measured after 70 days (Rvb =65.90 kg); type: functional
Colletotrichum acutatum [4] = test: Fungicidal activity against Colletotrichum acutatum infested Citrus sinensis assessed as reduction in symptomatic flowers at 1.25 g/l applied through airblast sprayer during open flower stage measured after 7 days; type: functional, organism-based
Colletotrichum acutatum [5] = test: Fungicidal activity against Colletotrichum acutatum infested Citrus sinensis assessed as total fruit weight per plant at 1.25 g/l applied through airblast sprayer during green bud flower stage measured after 70 days (Rvb =65.90 kg); type: functional
Colletotrichum acutatum [6] = test: Fungicidal activity against Colletotrichum acutatum infested Citrus sinensis assessed as reduction in persistant calyces at 1.25 g/l applied through airblast sprayer during green bud to white ball flower stages measured after 7 days; type: functional, organism-based
Colletotrichum acutatum [7] = test: Fungicidal activity against Colletotrichum acutatum infested Citrus sinensis assessed as increase in fruit set at 1.25 g/l applied through airblast sprayer during white bud and hollow ball flower stages measured after 70 days relative to control; type: functional, organism-based
Colletotrichum acutatum [8] = test: Fungicidal activity against Colletotrichum acutatum infested Citrus sinensis assessed as reduction in symptomatic flowers at 1.25 g/l applied through airblast sprayer during green bud and hollow ball flower stages measured after 7 days; type: functional, organism-based
Colletotrichum acutatum [9] = test: Fungicidal activity against Colletotrichum acutatum infested Citrus sinensis assessed as total fruit weight per plant at 1.25 g/l applied through airblast sprayer during hollow ball flower stage measured after 70 days (Rvb =49.88 kg); type: functional
Colletotrichum acutatum [10] = test: Fungicidal activity against Colletotrichum acutatum infested Citrus sinensis assessed as increase in fruit production per tree at 1.25 g/l applied through airblast sprayer during green bud to white ball flower stages measured after 70 days; type: functional, organism-based
Colletotrichum acutatum [11] = test: Fungicidal activity against Colletotrichum acutatum infested Citrus sinensis assessed as reduction in symptomatic flowers at 1.25 g/l applied through airblast sprayer during white bud and hollow ball flower stages measured after 7 days; type: functional, organism-based
Colletotrichum acutatum [12] = test: Fungicidal activity against Colletotrichum acutatum infested Citrus sinensis assessed as reduction in persistant calyces at 1 g/l applied through airblast sprayer during green bud to white ball flower stages measured after 7 days; type: functional, organism-based
Colletotrichum acutatum [13] = test: Fungicidal activity against Colletotrichum acutatum infested Citrus sinensis assessed as total fruit weight per plant at 1.25 g/l applied through airblast sprayer during open flower stage measured after 70 days (Rvb =49.88 kg); type: functional
Colletotrichum acutatum [14] = test: Fungicidal activity against Colletotrichum acutatum infested Citrus sinensis assessed as total fruit weight per plant at 1.25 g/l applied through airblast sprayer during white bud and hollow ball flower stages measured after 70 days (Rvb =49.88 kg); type: functional
Colletotrichum acutatum [15] = test: Fungicidal activity against Colletotrichum acutatum infested Citrus sinensis assessed as increase in fruit set percentage at 1.25 g/l applied through airblast sprayer during green bud to white ball flower stages measured after 70 days; type: functional, organism-based
Colletotrichum acutatum [16] = test: Fungicidal activity against Colletotrichum acutatum infested Citrus sinensis assessed as increase in fruit production per tree at 1 g/l applied through airblast sprayer during green bud to white ball flower stages measured after 70 days; type: functional, organism-based
Colletotrichum acutatum [17] = test: Fungicidal activity against Colletotrichum acutatum infested Citrus sinensis assessed as total fruit weight per plant at 1.25 g/l applied through airblast sprayer during green bud, white bud and hollow ball flower stages measured after 70 days (Rvb =65.90 kg); type: functional
Colletotrichum acutatum [18] = test: Fungicidal activity against Colletotrichum acutatum infested Citrus sinensis assessed as reduction in symptomatic flowers at 1.25 g/l applied through airblast sprayer during hollow ball flower stage measured after 7 days; type: functional, organism-based
Colletotrichum acutatum [19] = test: Fungicidal activity against Colletotrichum acutatum infested Citrus sinensis assessed as reduction in number of symptomatic flowers at 1.25 g/l applied through airblast sprayer during green bud, white bud and hollow ball flower stages measured after 7 days; type: functional, organism-based
Colletotrichum acutatum [20] = test: Fungicidal activity against Colletotrichum acutatum infested Citrus sinensis assessed as increase in fruit set percentage at 1 g/l applied through airblast sprayer during green bud to white ball flower stages measured after 70 days; type: functional, organism-based
Colletotrichum acutatum [21] = test: Fungicidal activity against Colletotrichum acutatum infested Citrus sinensis assessed as total fruit weight per plant at 1.25 g/l applied through airblast sprayer during green bud and hollow ball flower stages measured after 70 days (Rvb =49.88 kg); type: functional
Colletotrichum acutatum [22] = test: Fungicidal activity against Colletotrichum acutatum infested Citrus sinensis assessed as increase in fruit set at 1.25 g/l applied through airblast sprayer during green bud, white bud and hollow ball flower stages measured after 70 days; type: functional, organism-based

Structure (SMILES): O=C1c2ccccc2C(=O)N1SC(Cl)(Cl)Cl [FOLPET]
- Activity (Colletotrichum acutatum [1]): inactive
- Activity (Colletotrichum acutatum [2]): 86.9 kg
- Activity (Colletotrichum acutatum [3]): 53.5 kg
- Activity (Colletotrichum acutatum [4]): inactive
- Activity (Colletotrichum acutatum [5]): 48.7 kg
- Activity (Colletotrichum acutatum [6]): Active
- Activity (Colletotrichum acutatum [7]): Active
- Activity (Colletotrichum acutatum [8]): Active
- Activity (Colletotrichum acutatum [9]): 48.2 kg
- Activity (Colletotrichum acutatum [10]): Active
- Activity (Colletotrichum acutatum [11]): Active
- Activity (Colletotrichum acutatum [12]): Active
- Activity (Colletotrichum acutatum [13]): 61.2 kg
- Activity (Colletotrichum acutatum [14]): 59.6 kg
- Activity (Colletotrichum acutatum [15]): Active
- Activity (Colletotrichum acutatum [16]): Active
- Activity (Colletotrichum acutatum [17]): 87.7 kg
- Activity (Colletotrichum acutatum [18]): Active
- Activity (Colletotrichum acutatum [19]): Active
- Activity (Colletotrichum acutatum [20]): Active
- Activity (Colletotrichum acutatum [21]): 46 kg
- Activity (Colletotrichum acutatum [22]): Active

From ChEMBL document CHEMBL3044960, “Evaluation of fungicide applications to sweet orange at different flowering stages for control of postbloom fruit drop caused by Colletotrichum acutatum” (2008)
